Reference: the NIST ThermoML archive (doi:10.1016/j.jct.2005.03.006)

Assay: wn = mass fraction of the nth substance listed
Conditions: Liquid, Buoyancy - hydrostatic balance

CCc1ccccc1 [ethylbenzene] + CO
mass density [kg/m3]
Conditions | 100 kPa | 5000 kPa | 9900 kPa | 19700 kPa | 29700 kPa | 39300 kPa | 49100 kPa | 58900 kPa
292.05 K, w2 = 0.5 | 830.6 | 834.1 | 838.5 | 845.6 | 852.2 | 858.6 | 864.4 | 871.2
292.4 K, w2 = 0.75 | 813.3 | 817.6 | 822.1 | 827.7 | 836.5 | 843 | 848.8 | 855.8
292.65 K, w2 = 0.25 | 848 | 851.5 | 855.3 | 862.7 | 868.8 | 874.8 | 880.7 | 886.8
314.55 K, w2 = 0.5 | 810.8 | 815.2 | 819.6 | 827.8 | 835.2 | 842 | 848.6 | 854.4
314.65 K, w2 = 0.25 | 828.6 | 833.1 | 837.2 | 845.1 | 852 | 859 | 869.3 | 871.5
317.6 K, w2 = 0.75 | 795.3 | 799.8 | 804 | 810.8 | 820.2 | 827.4 | – | 840.4
335.35 K, w2 = 0.75 | – | 778.8 | 783 | 790.7 | 801.3 | 809.4 | 816.4 | 823.5
335.45 K, w2 = 0.25 | – | 815 | 819.5 | 828.3 | 836.8 | 844.1 | 850.4 | 856.4
337.65 K, w2 = 0.5 | – | 794.3 | 799.5 | 808.3 | 816.7 | 824.4 | 831.7 | 837.8
358.8 K, w2 = 0.75 | – | 754.4 | 759.7 | 768.5 | 780.5 | 789.6 | 797.4 | 805.5
359.95 K, w2 = 0.25 | – | 790.3 | 796.2 | 807.6 | 817.7 | 825.5 | 831.8 | 838
360.45 K, w2 = 0.5 | – | 771.3 | 778.5 | 788.1 | 797.9 | 806.5 | 814.1 | 820.5
384.05 K, w2 = 0.75 | – | 725.4 | 732.8 | 743 | 757.2 | 767.3 | 776.2 | 785.4
384.45 K, w2 = 0.5 | – | 744 | 754.8 | 766.4 | 777.5 | 786.6 | 797.7 | 801.6
385.75 K, w2 = 0.25 | – | 763.2 | 770.7 | 785.7 | 797.4 | 806 | 813 | 819.7
407.15 K, w2 = 0.25 | – | 739 | 748.1 | 765 | 778.9 | – | 796.4 | 804.1
408.15 K, w2 = 0.5 | – | 713.2 | 729.5 | 742.4 | 754.8 | 765.3 | 774.1 | 783
410.05 K, w2 = 0.75 | – | 691 | 701 | 714.3 | 731.6 | 742.6 | 753.1 | 763
433.5 K, w2 = 0.25 | – | 707.9 | 719.4 | 739 | 755.8 | 767 | 775 | 784.4
434.15 K, w2 = 0.5 | – | 677.4 | 695.9 | 712.8 | 728.6 | 741.1 | 751.2 | 761.4
434.35 K, w2 = 0.75 | – | 654.7 | 668.2 | 686 | 706.5 | 719 | 730.7 | 742.3
459.55 K, w2 = 0.75 | – | 608.3 | 628.7 | 651.4 | 677.4 | 692.5 | 706.4 | 719.5
460.25 K, w2 = 0.5 | – | 634.7 | 653.7 | 677.5 | 697.7 | 713.4 | 726.4 | 738.3
460.45 K, w2 = 0.25 | – | 668.7 | 683.4 | 708.2 | 727.1 | 740.5 | 751.2 | 761.5
489.65 K, w2 = 0.75 | – | 527.2 | 571 | 607 | 640.3 | 659.7 | 677.3 | 692.8
491.15 K, w2 = 0.5 | – | 554 | 594.2 | 633.2 | 656.5 | – | 693 | 708.6
497.95 K, w2 = 0.25 | – | 623 | 640.4 | 671 | 693.7 | 710.4 | 724.5 | 736
